Data from ChEMBL document CHEMBL4270481, “ALK5 kinase inhibitory activity and synthesis of 2,3,4-substituted 5,5-dimethyl-5,6-dihydro-4H-pyrrolo[1,2-b]pyrazoles” (Eur J Med Chem, 2017).
Active and inactive are the calls of the source. The calls are words filed in the database; no cut-off is given here.

Columns and labels:
TGF-beta receptor type-1 = molecular target: T1, TGF-beta receptor type-1 (Homo sapiens, UniProt P36897); experiment: Inhibition of human ALK5 expressed in Sf9 insect cells using casein as substrate in presence of [gamma-33P]ATP; assay type: cell-based
T1 sequence (P36897 whole entry): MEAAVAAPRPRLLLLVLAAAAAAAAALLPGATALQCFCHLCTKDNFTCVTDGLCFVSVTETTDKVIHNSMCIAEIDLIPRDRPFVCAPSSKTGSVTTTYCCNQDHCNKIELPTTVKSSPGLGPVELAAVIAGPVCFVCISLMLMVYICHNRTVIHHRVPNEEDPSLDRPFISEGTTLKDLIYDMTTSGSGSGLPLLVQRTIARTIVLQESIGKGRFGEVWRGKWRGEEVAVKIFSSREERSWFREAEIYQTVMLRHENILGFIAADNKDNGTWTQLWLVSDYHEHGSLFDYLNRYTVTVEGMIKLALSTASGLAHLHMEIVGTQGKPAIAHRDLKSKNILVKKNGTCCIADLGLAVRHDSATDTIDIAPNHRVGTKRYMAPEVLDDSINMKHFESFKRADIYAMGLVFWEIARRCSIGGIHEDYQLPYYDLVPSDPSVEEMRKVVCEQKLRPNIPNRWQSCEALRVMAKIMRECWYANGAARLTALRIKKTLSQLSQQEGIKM

[1] = molecular target: Tyrosine-protein kinase ABL1 (Mus musculus, UniProt P00520); experiment: biochemical; assay type: cell-based, Sf9
[2] = molecular target: T2, TGF-beta receptor type-1 (Homo sapiens) (UniProt P36897); experiment: Inhibition of ALK5 in serum starved human HeLa cells assessed as reduction in TGF-beta-induced SMAD2 S465/467 phosphorylation pre-incubated for 30 mins before TGF-beta stimulation for 30 mins by immunoblotting analysis; assay type: cell-based
T2 sequence (whole entry): T1 sequence (P36897 whole entry)

[3] = molecular target: T2, TGF-beta receptor type-1 (Homo sapiens); experiment: Inhibition of ALK5 in serum starved human HeLa cells assessed as reduction in TGF-beta-induced SMAD2/3 nuclear transaction at 10 uM pre-incubated for 30 mins before TGF-beta stimulation for 30 mins by immunofluorescence analysis; assay type: cell-based
[4] = molecular target: T2, TGF-beta receptor type-1 (Homo sapiens); experiment: Inhibition of human ALK5 expressed in Sf9 insect cells assessed as residual enzyme activity at 1 uM using casein as substrate in presence of [gamma-33P]ATP relative to untreated control
[5] = molecular target: Receptor-interacting serine/threonine-protein kinase 2 (Homo sapiens) (UniProt O43353); experiment: Inhibition of RIPK2 (unknown origin) assessed as residual enzyme activity at 1 uM relative to untreated control
Chain of Receptor-interacting serine/threonine-protein kinase 2 (Homo sapiens) (O43353 whole entry): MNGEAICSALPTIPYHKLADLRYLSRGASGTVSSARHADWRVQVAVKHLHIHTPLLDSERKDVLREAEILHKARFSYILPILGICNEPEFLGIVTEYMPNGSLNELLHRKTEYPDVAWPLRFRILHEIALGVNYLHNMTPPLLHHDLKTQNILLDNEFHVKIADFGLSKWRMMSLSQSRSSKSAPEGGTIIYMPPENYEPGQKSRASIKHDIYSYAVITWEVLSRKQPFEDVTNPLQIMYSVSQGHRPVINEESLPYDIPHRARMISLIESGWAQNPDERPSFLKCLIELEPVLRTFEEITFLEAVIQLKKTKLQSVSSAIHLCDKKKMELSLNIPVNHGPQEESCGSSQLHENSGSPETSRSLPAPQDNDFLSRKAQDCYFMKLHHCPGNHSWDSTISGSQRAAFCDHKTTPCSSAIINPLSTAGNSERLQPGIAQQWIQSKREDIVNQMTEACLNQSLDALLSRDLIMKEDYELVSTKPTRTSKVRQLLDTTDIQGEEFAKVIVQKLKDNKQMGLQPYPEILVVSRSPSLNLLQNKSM

[6] = molecular target: Mitogen-activated protein kinase kinase kinase 11 (Homo sapiens) (UniProt Q16584); experiment: Inhibition of MLK3 (unknown origin) assessed as residual enzyme activity at 1 uM relative to untreated control
[7] = molecular target: Casein kinase 2 (Homo sapiens) (UniProt P67870+P68400+P19784+Q8NEV1); experiment: Inhibition of CK2 (unknown origin) assessed as residual enzyme activity at 1 uM relative to untreated control; assay type: protein assay
Homo sapiens = species on record: Homo sapiens; experiment: Inhibition of PKA (unknown origin) assessed as residual enzyme activity at 1 uM relative to untreated control
[8] = molecular target: Serine/threonine-protein kinase Sgk1 (Homo sapiens) (UniProt O00141); experiment: Inhibition of SGK1 (unknown origin) assessed as residual enzyme activity at 1 uM relative to untreated control
[9] = molecular target: Vascular endothelial growth factor receptor (Homo sapiens) (UniProt P17948+P35916+P35968); experiment: Inhibition of VEGFR (unknown origin) assessed as residual enzyme activity at 1 uM relative to untreated control; assay type: protein assay
[10] = molecular target: Calcium/calmodulin-dependent protein kinase kinase 2 (Homo sapiens) (UniProt Q96RR4); experiment: Inhibition of CAMKKbeta (unknown origin) assessed as residual enzyme activity at 1 uM relative to untreated control
[11] = molecular target: Dual specificity tyrosine-phosphorylation-regulated kinase 1A (Homo sapiens) (UniProt Q13627); experiment: Inhibition of DYRK1A (unknown origin) assessed as residual enzyme activity at 1 uM relative to untreated control
[12] = molecular target: Receptor tyrosine-protein kinase erbB-4 (Homo sapiens) (UniProt Q15303); experiment: Inhibition of HER4 (unknown origin) assessed as residual enzyme activity at 1 uM relative to untreated control
[13] = molecular target: Serine/threonine-protein kinase Chk2 (Homo sapiens) (UniProt O96017); experiment: Inhibition of CHK2 (unknown origin) assessed as residual enzyme activity at 1 uM relative to untreated control
[14] = molecular target: Insulin-like growth factor 1 receptor (Homo sapiens) (UniProt P08069); experiment: Inhibition of IGF1R (unknown origin) assessed as residual enzyme activity at 1 uM relative to untreated control
Chain of Insulin-like growth factor 1 receptor (Homo sapiens) (P08069 31-736 limits assumed): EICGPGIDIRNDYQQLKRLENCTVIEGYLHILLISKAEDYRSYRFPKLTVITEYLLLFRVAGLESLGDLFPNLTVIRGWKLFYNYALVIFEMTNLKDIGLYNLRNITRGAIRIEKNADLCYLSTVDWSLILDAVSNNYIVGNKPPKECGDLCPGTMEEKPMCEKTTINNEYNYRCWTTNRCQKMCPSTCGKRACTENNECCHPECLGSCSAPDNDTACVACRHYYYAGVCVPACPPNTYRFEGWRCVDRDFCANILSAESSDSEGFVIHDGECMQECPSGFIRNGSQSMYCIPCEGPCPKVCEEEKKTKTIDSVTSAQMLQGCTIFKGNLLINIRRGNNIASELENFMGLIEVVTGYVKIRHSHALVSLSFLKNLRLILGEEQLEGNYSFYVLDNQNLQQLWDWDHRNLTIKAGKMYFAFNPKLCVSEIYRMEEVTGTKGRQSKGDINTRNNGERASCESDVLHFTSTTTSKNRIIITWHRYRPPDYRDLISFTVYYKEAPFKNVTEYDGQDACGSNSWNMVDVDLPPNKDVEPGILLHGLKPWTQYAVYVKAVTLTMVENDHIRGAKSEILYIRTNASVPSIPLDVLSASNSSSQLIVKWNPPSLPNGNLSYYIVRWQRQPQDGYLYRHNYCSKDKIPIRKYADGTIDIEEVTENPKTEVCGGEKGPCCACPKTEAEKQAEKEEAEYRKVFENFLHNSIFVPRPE
Chain of Insulin-like growth factor 1 receptor (Homo sapiens) (P08069 741-1367 limits assumed): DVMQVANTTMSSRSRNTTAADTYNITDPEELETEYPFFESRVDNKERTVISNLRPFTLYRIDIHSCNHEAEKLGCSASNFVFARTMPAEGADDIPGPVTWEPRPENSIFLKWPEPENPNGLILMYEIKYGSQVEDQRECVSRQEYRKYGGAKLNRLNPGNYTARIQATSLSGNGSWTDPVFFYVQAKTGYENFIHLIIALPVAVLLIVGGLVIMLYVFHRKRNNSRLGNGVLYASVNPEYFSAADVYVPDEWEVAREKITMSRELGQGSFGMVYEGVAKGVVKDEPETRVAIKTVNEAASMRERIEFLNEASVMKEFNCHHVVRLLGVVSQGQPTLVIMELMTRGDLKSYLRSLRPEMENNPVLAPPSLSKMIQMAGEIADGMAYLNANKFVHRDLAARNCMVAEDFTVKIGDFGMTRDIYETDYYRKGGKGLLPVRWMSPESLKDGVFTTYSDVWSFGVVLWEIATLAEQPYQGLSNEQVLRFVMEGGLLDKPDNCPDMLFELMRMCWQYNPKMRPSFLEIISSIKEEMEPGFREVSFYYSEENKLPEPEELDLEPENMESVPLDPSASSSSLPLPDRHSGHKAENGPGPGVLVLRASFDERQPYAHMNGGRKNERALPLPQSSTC

[15] = molecular target: Tyrosine-protein kinase Lck (Homo sapiens) (UniProt P06239); experiment: Inhibition of LCK (unknown origin) assessed as residual enzyme activity at 1 uM relative to untreated control
Chain of Tyrosine-protein kinase Lck (Homo sapiens) (P06239 2-509 limits assumed): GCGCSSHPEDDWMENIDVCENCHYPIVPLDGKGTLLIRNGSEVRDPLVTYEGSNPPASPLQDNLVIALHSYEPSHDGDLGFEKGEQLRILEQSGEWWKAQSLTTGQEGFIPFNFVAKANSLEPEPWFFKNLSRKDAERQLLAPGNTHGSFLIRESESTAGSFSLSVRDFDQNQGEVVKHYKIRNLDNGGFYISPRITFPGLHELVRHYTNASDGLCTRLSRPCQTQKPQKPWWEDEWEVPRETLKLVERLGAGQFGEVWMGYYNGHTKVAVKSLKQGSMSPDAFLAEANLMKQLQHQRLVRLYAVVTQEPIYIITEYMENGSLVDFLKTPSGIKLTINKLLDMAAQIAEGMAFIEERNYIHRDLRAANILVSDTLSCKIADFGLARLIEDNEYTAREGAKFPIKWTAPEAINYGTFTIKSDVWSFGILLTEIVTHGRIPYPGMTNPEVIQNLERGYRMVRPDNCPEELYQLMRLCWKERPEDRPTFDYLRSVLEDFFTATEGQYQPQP

[16] = molecular target: 3-phosphoinositide-dependent protein kinase 1 (Homo sapiens) (UniProt O15530); experiment: Inhibition of PDK1 (unknown origin) assessed as residual enzyme activity at 1 uM relative to untreated control
Chain of 3-phosphoinositide-dependent protein kinase 1 (Homo sapiens) (O15530 whole entry): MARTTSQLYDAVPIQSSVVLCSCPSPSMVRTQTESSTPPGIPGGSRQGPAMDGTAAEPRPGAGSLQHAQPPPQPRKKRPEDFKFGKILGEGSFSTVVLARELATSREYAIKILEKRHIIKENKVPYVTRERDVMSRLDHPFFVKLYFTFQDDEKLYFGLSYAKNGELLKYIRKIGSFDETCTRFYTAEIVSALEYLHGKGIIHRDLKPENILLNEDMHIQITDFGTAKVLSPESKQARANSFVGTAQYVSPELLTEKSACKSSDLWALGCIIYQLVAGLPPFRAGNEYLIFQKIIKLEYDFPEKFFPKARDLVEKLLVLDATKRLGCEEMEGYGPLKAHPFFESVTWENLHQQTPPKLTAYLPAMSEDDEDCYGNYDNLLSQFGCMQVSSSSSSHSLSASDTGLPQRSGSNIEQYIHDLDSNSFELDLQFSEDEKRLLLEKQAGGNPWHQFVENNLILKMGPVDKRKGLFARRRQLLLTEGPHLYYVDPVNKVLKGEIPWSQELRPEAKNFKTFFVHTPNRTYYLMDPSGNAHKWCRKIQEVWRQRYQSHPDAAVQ

[17] = molecular target: Protein kinase C alpha type (Homo sapiens) (UniProt P17252); experiment: Inhibition of PKCalpha (unknown origin) assessed as residual enzyme activity at 1 uM relative to untreated control
[18] = molecular target: Serine/threonine-protein kinase PLK1 (Homo sapiens) (UniProt P53350); experiment: Inhibition of PLK1 (unknown origin) assessed as residual enzyme activity at 1 uM relative to untreated control
[19] = molecular target: Ribosomal protein S6 kinase beta-1 (Homo sapiens) (UniProt P23443); experiment: Inhibition of S6K1 (unknown origin) assessed as residual enzyme activity at 1 uM relative to untreated control
Chain of Ribosomal protein S6 kinase beta-1 (Homo sapiens) (P23443 whole entry, looked up): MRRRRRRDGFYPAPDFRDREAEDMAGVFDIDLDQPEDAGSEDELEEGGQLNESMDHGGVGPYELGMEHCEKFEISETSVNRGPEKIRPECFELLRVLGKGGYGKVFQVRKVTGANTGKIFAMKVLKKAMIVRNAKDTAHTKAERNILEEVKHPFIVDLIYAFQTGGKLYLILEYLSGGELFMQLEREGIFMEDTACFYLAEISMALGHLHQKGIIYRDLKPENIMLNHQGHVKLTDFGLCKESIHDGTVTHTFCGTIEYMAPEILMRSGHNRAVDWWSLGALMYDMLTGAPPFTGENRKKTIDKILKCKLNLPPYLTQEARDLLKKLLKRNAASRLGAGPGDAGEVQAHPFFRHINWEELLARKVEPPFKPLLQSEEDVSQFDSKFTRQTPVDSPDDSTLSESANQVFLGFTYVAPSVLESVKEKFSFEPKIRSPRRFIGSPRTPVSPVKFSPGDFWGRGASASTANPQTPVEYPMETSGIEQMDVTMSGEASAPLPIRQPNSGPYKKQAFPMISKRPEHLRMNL

[20] = molecular target: Tyrosine-protein kinase SYK (Homo sapiens) (UniProt P43405); experiment: Inhibition of SYK (unknown origin) assessed as residual enzyme activity at 1 uM relative to untreated control
[21] = molecular target: Mitogen-activated protein kinase kinase kinase 7 (Homo sapiens) (UniProt O43318); experiment: Inhibition of TAK1 (unknown origin) assessed as residual enzyme activity at 1 uM relative to untreated control
Chain of Mitogen-activated protein kinase kinase kinase 7 (Homo sapiens) (O43318 whole entry): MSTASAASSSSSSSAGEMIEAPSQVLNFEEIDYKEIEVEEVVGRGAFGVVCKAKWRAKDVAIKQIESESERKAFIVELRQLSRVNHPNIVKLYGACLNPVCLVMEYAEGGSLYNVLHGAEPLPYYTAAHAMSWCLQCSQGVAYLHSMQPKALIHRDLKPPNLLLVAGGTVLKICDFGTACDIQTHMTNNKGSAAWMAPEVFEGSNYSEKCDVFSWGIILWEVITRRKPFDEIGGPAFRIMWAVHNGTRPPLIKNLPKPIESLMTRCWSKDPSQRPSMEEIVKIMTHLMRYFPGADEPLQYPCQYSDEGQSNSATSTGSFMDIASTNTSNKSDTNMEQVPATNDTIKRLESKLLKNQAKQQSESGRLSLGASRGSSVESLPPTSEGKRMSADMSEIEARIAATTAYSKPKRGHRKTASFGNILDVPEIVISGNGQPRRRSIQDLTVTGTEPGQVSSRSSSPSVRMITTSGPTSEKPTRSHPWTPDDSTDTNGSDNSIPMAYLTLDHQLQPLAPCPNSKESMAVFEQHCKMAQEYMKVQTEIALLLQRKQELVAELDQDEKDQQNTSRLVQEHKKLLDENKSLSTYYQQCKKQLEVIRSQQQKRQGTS

[22] = molecular target: Serine/threonine-protein kinase TBK1 (Homo sapiens) (UniProt Q9UHD2); experiment: Inhibition of TBK1 (unknown origin) assessed as residual enzyme activity at 1 uM relative to untreated control
Chain of Serine/threonine-protein kinase TBK1 (Homo sapiens) (Q9UHD2 whole entry): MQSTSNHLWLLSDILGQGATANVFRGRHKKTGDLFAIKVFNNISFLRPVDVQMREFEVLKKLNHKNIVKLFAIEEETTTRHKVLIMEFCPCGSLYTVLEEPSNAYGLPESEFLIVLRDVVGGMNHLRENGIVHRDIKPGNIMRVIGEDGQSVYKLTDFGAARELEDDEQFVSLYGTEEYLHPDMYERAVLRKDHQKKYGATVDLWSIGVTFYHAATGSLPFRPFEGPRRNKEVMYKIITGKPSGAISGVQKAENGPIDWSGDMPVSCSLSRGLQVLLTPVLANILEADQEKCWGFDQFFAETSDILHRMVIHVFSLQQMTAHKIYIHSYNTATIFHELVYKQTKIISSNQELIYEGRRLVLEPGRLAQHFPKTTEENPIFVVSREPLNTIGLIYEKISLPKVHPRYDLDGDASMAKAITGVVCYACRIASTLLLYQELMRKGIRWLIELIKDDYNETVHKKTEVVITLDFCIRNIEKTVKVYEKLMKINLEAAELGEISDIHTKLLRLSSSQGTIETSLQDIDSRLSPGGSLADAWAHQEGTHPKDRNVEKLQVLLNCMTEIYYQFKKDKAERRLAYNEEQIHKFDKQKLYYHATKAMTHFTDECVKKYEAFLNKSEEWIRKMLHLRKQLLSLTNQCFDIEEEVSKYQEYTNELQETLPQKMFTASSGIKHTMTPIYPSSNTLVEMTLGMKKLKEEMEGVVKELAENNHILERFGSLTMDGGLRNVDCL

[23] = molecular target: Dual specificity protein kinase TTK (Homo sapiens) (UniProt P33981); experiment: Inhibition of TTK (unknown origin) assessed as residual enzyme activity at 1 uM relative to untreated control
[24] = molecular target: T2, TGF-beta receptor type-1 (Homo sapiens); details: HeLa, at 1 µM
Description: Inhibition of ALK5 in serum starved human HeLa cells assessed as reduction in TGF-beta-induced SMAD2/3 nuclear transaction at 1 uM pre-incubated for 30 mins before TGF-beta stimulation for 30 mins by immunofluorescence analysis

IC50 (TGF-beta receptor type-1): 0.08 µM
IC50 [1]: 66 µM
inhibition [2]: Dose-dependent effect
inhibition [3]: 100%
Activity [4]: 6%
Activity [5]: 11%
Activity [6]: 34%
Activity [7]: 60 to 80%
Activity (Homo sapiens): 60 to 80%
Activity [8]: 60 to 80%
Activity [9]: 60 to 80%
Activity [10]: > 80%
Activity [11]: > 80%
Activity [12]: > 80%
Activity [13]: > 80%
Activity [14]: > 80%
Activity [15]: > 80%
Activity [16]: > 80%
Activity [17]: > 80%
Activity [18]: > 80%
Activity [19]: > 80%
Activity [20]: > 80%
Activity [21]: > 80%
Activity [22]: > 80%
Activity [23]: > 80%
inhibition [24]: Active
Compound: Cc1cccc(-c2nn3c(c2-c2ccc(O)cc2)C(C)C(C)(C)C3)n1 (stereo unspecified)
